{"source": "patent US20220184059A1", "about": "“PROCESS FOR PREPARING SPHERICAL AGGLOMERATES OF TIMAPIPRANT” (Chiesi Farmaceutici S.p.A., priority 2018, published 2022)", "key": {"[1]": {"assay": "Specific surface area (SSA) by BET nitrogen adsorption", "assay_type": "physicochemical", "protocol": "The specific surface areas (SSA) of spherical agglomerates of timapiprant obtained according to Examples 3, 5,7 and the micronized timapiprant were measured was determined by BET nitrogen adsorption using the TriStar of Micromeritics apparatus according to following parameters: • Isotherm, Adsorbing/Desorbing Run: 0 to 1 p/p0 • Vials: ⅜ Inch, Degasing Pre-analysis: 2 hours at 40° C., Nitrogen as adsorbate • Preparation: Evacuation Rate 10 mmHg/s; Unrestricted evacuation from 5 mmHg • Vacuum setpoint: 10 mmHg, Evacuation time: 1 hour • Leak Test Duration: 120 s, Outgas Test Duration: 180 s • Measure p0 at intervals during the analysis, Enter the analysis bath temperature: […]77 kelvin • Equilibration Interval: 5 s; Minimum Equilibration Delay at p/p0>=0.995 per 600 s."}, "[2]": {"assay": "Flowability of blend material with excipients", "assay_type": "physicochemical", "details": "for Flow properties of blend: blend material of API with excipients; for Flowability (s/100 g): blend material of API with excipients of Table 3", "protocol": "The spherical agglomerates of timapiprant or the micronized timapiprant, together with the microcrystalline cellulose, the croscarmellose sodium, the poloxamer, the sodium lauryl sulphate and the colloidal silicon dioxide in the above amounts, are sieved in a sieve of 1.2 mm. The lactose monohydrate is then added, and the resulting mixture is blended in a free fall blender for at least 15 minutes. The magnesium stearate is added to the obtained mixture which is further blended in the free fall blender for additional 3 minutes."}, "[3]": {"assay": "Primary particle size distribution by laser diffraction after break up of spherical agglomerates", "assay_type": "physicochemical", "details": "primary particles; for PSD d (0.1), Mean result / PSD d (0.5), Mean result: mean of 10 acquisitions", "protocol": "The primary particle size distribution results are produced by means of a Malvern 2000 laser diffraction equipment by the analysis of the primary particles in suspension.\nThe particle size distribution laser diffraction measures were performed using a Malvern Mastersizer 2000 equipped with a Hydro 2000S cell for the wet suspension of the Timapiprant primary particles. The spherical agglomerates obtained according to the Examples 3 and 5, were dispersed in water by means of 10 minutes sonication and then added to the cell, previously filled with water, until an obscuration within 5-10% was obtained. The stirring rate was set at 1500 rpm and each of the suspensions produced were analysed by 10 acquisitions, the results are reported in Tables 1 and 2."}, "[4]": {"target": "T1, prostaglandin D2 receptor (CRTH2) (Homo sapiens, UniProt Q9Y5Y4)", "T1 sequence (Q9Y5Y4 1-395)": "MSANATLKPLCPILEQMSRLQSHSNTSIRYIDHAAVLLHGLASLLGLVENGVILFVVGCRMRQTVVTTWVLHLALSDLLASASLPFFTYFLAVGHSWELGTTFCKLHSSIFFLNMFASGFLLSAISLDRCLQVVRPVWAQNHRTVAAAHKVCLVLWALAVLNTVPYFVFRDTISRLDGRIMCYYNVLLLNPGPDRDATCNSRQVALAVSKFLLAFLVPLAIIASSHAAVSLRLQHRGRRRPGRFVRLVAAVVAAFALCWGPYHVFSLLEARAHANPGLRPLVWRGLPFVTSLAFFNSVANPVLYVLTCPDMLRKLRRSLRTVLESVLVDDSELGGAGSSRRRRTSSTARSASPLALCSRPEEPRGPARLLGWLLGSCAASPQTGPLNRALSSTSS", "details": "cited from earlier work"}, "[5]": {"tested_on": "patients with atopic eosinophilic asthma", "details": "cited from earlier work"}, "[6]": {"tested_on": "human Th2 lymphocytes and eosinophils", "details": "cited from earlier work"}, "[7]": {"details": "agglomerates dispersed in water by 10 minutes sonication, single acquisition"}}, "note": "Where “and” joins values, the source holds several entries; their conditions need not be identical. Equal entries are not always repeated. Where two headings read alike, the source gives them in different places.", "data": [{"compound": "Cc1c(Cc2ccc3ccccc3n2)c2cc(F)ccc2n1CC(=O)O", "note": "[Example 7, (5-fluoro-2-methyl-3-quinolin-2-yl-methyl-indol-1-yl)acetic acid]", "values": [{"measurement": "SSA (m^2/g)", "setting": "[1]; listed as Spherical agglomerates of timapiprant of Example 7", "value": 15.5, "unit": "m^2/g"}]}, {"compound": "Cc1c(Cc2ccc3ccccc3n2)c2cc(F)ccc2n1CC(=O)O", "note": "[Micronized Timapiprant, reference compound]", "values": [{"measurement": "Flow properties of blend", "setting": "[2]", "value": "very poor flow properties"}, {"measurement": "Flowability (s/100 g)", "setting": "[2]", "value": "∞"}, {"measurement": "SSA (m^2/g)", "setting": "[1]", "value": "8.0 m^2/g and 7.8 m^2/g"}, {"measurement": "SSA (m^2/g)", "setting": "[1]; listed as micronized timapiprant", "value": "less than 8.5 m^2/g"}]}, {"compound": "Cc1c(Cc2ccc3ccccc3n2)c2cc(F)ccc2n1CC(=O)O", "note": "[Example 5, (5-fluoro-2-methyl-3-quinolin-2-yl-methyl-indol-1-yl)acetic acid]", "values": [{"measurement": "PSD d (0.5)", "setting": "[3]; [7]", "value": 0.64, "unit": "μm"}, {"measurement": "PSD d (0.1), Mean result", "setting": "[3]", "value": 0.31, "unit": "μm"}, {"measurement": "PSD d (0.5), Mean result", "setting": "[3]", "value": 0.64, "unit": "μm"}, {"measurement": "Flowability (s/100 g)", "setting": "[2]; listed as Spherical agglomerates of timapirpant", "value": 4, "unit": "sec s/100 g"}, {"measurement": "Flow properties of blend", "setting": "[2]; listed as spherical agglomerates of timapiprant", "value": "good flowability"}, {"measurement": "SSA (m^2/g)", "setting": "[1]; listed as Spherical agglomerates of timapiprant of Example 5", "value": 10.1, "unit": "m^2/g"}]}, {"compound": "Cc1c(Cc2ccc3ccccc3n2)c2cc(F)ccc2n1CC(=O)O", "note": "[timapiprant]", "values": [{"measurement": "CRTH2 antagonist activity", "setting": "[4]", "value": "potent, selective, and orally active prostaglandin D2 receptor (CRTH2) antagonist"}, {"measurement": "Clinical efficacy", "setting": "[5]", "value": "effective in reducing airway inflammation and improving lung function and quality of life"}, {"measurement": "Inhibition of mast cell-dependent activation", "setting": "[6]", "value": "inhibits mast cell-dependent activation of both human Th2 lymphocytes and eosinophils"}]}, {"compound": "Cc1c(Cc2ccc3ccccc3n2)c2cc(F)ccc2n1CC(=O)O", "note": "[Example 3, (5-fluoro-2-methyl-3-quinolin-2-yl-methyl-indol-1-yl)acetic acid]", "values": [{"measurement": "PSD d (0.1)", "setting": "[3]; [7]", "value": 0.28, "unit": "μm"}, {"measurement": "PSD d (0.5)", "setting": "[3]; [7]", "value": 0.56, "unit": "μm"}, {"measurement": "PSD d (0.1), Mean result", "setting": "[3]", "value": 0.28, "unit": "μm"}, {"measurement": "PSD d (0.5), Mean result", "setting": "[3]", "value": 0.56, "unit": "μm"}, {"measurement": "SSA (m^2/g)", "setting": "[1]; listed as Spherical agglomerates of timapiprant of Example 3", "value": 13.1, "unit": "m^2/g"}]}]}
